Measured values as given in patent US8178668B2, “2-aminopyridine kinase inhibitors” (OSI Pharmaceuticals, LLC, priority 2008, dated 2012).
Where a name gives a salt, the structure may show the parent alone.

Assays:
[1] = target: MET (human) (Homo sapiens, UniProt P08581); assay: MET kinase AlphaScreen assay (Km of ATP); type: biochemical; conditions: ATP at Km; at least duplicate experiments
Experimental: (§1) Person skilled in the art will appreciate that a variety of assay formats may be used to determine the activity of the compounds of this invention. For example, AlphaScreen (Amplified Luminescent Proximity Homogeneous Assay) technology was used with the kinases described below. Assay ATP concentrations for individual kinases are included in the text.
MET (human)—Km of ATP: MET assay is performed in a 384 well assay containing 200 ng/μL biotinylated poly(Glu,Tyr), 0.334 mM vanadate, desired concentration of ATP optimized for the enzyme in assay buffer (50 mM HEPES (pH=7.4), 5 mM MgCl2, 5 mM MnCl2, and 1% glycerol). Desired compound is added in a final concentration of 1% DMSO with control being vehicle of DMSO alone. MET is diluted to the optimized concentration (optimized on a lot-by-lot basis) in an enzyme diluent buffer (50 mM Tris pH=7.4, 1% glycerol, 0.03% Brij35, 0.24 mM EGTA, 1 mM DTT, and 0.003% BSA). Enzyme is added to initiate the reaction and incubated for 60 min at RT. In subdued light, appropriate amount of PT66 donor and acceptor beads (diluted 1:260 from manufacturer's provision in a 25 mM Tris HCl (pH=7.5), 400 mM NaCl, 100 mM EDTA, 0.3% BSA buffer) are added to the wells. The plates, incubated for 1 h, are read on an AlphaQuest plate reader

[2] = target: RON (human) (Homo sapiens, UniProt Q04912); assay: RON kinase AlphaScreen assay (Km of ATP); type: biochemical; conditions: ATP at Km; at least duplicate experiments
Sequence of RON (human) (Q04912 25-1400): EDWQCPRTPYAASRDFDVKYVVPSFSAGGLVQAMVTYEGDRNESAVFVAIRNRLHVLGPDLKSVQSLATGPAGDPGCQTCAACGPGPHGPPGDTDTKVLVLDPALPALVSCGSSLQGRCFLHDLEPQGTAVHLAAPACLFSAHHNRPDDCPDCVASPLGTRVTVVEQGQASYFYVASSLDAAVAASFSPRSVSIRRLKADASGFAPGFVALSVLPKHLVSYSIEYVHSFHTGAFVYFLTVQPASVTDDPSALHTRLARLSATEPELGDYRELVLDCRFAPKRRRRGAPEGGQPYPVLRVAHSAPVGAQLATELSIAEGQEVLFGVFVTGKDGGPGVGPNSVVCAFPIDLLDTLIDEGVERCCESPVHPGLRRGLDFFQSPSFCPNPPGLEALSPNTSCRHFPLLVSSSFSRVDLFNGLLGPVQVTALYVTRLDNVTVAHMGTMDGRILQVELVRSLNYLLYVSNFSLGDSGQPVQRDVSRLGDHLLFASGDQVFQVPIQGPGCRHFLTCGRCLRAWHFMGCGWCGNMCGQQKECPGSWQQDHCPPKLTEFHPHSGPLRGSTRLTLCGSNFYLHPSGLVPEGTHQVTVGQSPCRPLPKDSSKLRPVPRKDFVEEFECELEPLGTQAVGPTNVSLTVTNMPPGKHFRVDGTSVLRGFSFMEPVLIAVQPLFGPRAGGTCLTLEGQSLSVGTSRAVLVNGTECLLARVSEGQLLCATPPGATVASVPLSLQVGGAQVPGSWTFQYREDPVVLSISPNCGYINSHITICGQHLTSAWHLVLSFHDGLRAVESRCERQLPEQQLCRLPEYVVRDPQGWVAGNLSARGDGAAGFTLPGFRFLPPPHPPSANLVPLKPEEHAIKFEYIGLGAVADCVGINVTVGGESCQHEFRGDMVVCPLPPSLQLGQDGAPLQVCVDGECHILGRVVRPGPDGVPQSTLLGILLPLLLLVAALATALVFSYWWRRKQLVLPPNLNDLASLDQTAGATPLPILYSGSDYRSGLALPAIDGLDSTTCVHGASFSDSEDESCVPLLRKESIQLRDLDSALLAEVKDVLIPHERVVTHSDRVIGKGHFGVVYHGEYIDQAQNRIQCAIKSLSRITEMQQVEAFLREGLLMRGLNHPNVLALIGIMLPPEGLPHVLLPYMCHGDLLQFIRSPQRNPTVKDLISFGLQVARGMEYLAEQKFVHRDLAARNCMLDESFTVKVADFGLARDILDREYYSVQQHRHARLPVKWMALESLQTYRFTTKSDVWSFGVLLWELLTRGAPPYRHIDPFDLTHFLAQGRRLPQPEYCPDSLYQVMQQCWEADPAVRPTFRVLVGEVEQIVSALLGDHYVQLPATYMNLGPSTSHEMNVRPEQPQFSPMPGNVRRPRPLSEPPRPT
Experimental: as §1
RON (human)—Km of ATP: RON assay is performed in a 384 well assay containing 200 ng/μL biotinylated poly(Glu,Tyr), 0.334 mM vanadate, desired concentration of ATP optimized for the enzyme in assay buffer (50 mM HEPES (pH=7.4), 12.5 mM MgCl2 and 1% glycerol). Desired compound is added in a final concentration of 1% DMSO with control being vehicle of DMSO alone. RON is diluted to the optimized (on a lot-by-lot basis) concentration in an enzyme diluent buffer (50 mM HEPES pH=7.4, 12.5 mM MgCl2 and 1% glycerol, 0.03% Brij35, 0.3 mM EGTA, lmM DTT, and 0.003% BSA). Enzyme is added to initiate the reaction and incubated for 30 min at RT. In subdued light, appropriate amount of PT66 donor and acceptor beads (diluted 1:260 from manufacturer's provision in a 25 mM Tris HCl (pH=7.5), 200 mM NaCl, 100 mM EDTA, 0.3% BSA buffer) are added to the wells. The plates, incubated for 1 h, are read on an AlphaQuest plate reader.

Sequence of MET (human) (P08581 25-1390): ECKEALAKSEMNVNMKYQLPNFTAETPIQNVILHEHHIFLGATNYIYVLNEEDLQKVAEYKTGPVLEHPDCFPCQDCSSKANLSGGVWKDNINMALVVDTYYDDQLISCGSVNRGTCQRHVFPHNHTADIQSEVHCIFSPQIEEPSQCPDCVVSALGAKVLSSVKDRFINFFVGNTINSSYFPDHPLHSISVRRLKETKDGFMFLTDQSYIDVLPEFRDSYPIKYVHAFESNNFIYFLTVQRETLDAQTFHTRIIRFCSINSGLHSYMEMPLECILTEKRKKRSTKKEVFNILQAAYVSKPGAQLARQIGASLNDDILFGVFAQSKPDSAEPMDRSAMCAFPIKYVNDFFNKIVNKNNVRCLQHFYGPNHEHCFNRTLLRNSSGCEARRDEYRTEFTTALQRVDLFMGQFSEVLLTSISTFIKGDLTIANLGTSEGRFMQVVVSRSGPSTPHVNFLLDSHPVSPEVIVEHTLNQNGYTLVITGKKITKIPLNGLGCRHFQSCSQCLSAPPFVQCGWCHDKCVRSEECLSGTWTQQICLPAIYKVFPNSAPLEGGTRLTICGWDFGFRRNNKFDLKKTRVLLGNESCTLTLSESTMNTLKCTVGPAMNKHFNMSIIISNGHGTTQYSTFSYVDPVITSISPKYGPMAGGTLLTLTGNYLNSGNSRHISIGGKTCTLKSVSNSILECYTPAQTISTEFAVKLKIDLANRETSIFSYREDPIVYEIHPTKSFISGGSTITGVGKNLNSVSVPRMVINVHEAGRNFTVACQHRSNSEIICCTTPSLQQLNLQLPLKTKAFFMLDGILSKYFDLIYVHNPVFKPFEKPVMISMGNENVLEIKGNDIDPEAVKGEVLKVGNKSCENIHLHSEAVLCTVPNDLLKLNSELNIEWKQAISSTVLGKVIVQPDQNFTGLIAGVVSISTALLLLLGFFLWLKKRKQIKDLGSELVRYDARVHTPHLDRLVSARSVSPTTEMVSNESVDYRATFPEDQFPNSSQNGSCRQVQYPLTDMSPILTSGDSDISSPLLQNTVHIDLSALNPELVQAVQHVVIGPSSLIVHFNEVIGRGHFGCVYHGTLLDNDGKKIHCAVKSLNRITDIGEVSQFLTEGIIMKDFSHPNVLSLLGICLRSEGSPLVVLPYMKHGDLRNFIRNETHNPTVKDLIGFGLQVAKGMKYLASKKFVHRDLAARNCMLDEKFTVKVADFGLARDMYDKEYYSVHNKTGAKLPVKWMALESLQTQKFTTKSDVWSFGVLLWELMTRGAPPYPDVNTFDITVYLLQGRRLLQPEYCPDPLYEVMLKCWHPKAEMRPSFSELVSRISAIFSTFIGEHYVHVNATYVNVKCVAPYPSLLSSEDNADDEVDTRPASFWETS

Row | Compound | IC50 [1] | IC50 [2]
1 | Nc1ncc(-c2cnn(C3CCNCC3)c2)cc1-c1cc2c(O)cccc2cn1 [Example 27, 3-[2-Amino-5-(1-piperidin-4-yl-1H-pyrazol-4-yl)-pyridin-3-yl]-isoquinolin-5-ol tri-hydrochloride salt] | 100 to 1000 nM | 100 to 1000 nM
2 | Nc1ncc(-c2cnn(C3CCNCC3)c2)cc1-c1cc2cc(O)ccc2cn1 [Example 28, 3-[2-Amino-5-(1-piperidin-4-yl-1H-pyrazol-4-yl)-pyridin-3-yl]-isoquinolin-6-ol trihydrochloride salt] | 100 to 1000 nM | 1000 to 20000 nM
3 | Nc1ncc(-c2cnn(C3CCNCC3)c2)cc1-c1cc2ccc(O)cc2cn1 [Example 29, 3-[2-Amino-5-(1-piperidin-4-yl-1H-pyrazol-4-yl)-pyridin-3-yl]-isoquinolin-7-ol] | 100 to 1000 nM | 100 to 1000 nM
4 | COc1nc(-c2cc(-c3cnn(C4CCNCC4)c3)cnc2N)cc2ccccc12 [Example 30, 3-(1-Methoxyisoquinolin-3-yl)-5-(1-piperidin-4-yl-1H-pyrazol-4-yl)-pyridin-2-ylamine trihydrochloride salt] | 100 to 1000 nM | 1000 to 20000 nM
5 | N#Cc1ccc2cnc(-c3cc(-c4cnn(C5CCNCC5)c4)cnc3N)cc2c1 [Example 31, 3-[2-Amino-5-(1-piperidin-4-yl-1H-pyrazol-4-yl)-pyridin-3-yl]-isoquinoline-6-carbonitrile trihydrochloride salt] | 1000 to 20000 nM | 1000 to 20000 nM
6 | N#Cc1ccc2cc(-c3cc(-c4cnn(C5CCNCC5)c4)cnc3N)ncc2c1 [Example 32, 3-[2-Amino-5-(1-piperidin-4-yl-1H-pyrazol-4-yl)-pyridin-3-yl]-isoquinoline-7-carbonitrile trihydrochloride salt] | 100 to 1000 nM | 100 to 1000 nM
7 | N#Cc1cccc2cnc(-c3cc(-c4cnn(C5CCNCC5)c4)cnc3N)cc12 [Example 33, 3-[2-Amino-5-(1-piperidin-4-yl-1H-pyrazol-4-yl)-pyridin-3-yl]-isoquinoline-5-carbonitrile trihydrochloride salt] | 100 to 1000 nM | 100 to 1000 nM
8 | Nc1ncc(-c2cnn(C3CCNCC3)c2)cc1-c1cc2ccc(F)cc2cn1 [Example 34, 3-(7-Fluoroisoquinolin-3-yl)-5-(1-piperidin-4-yl-1H-pyrazol-4-yl)-pyridin-2-ylamine] | 100 to 1000 nM | 1000 to 20000 nM
9 | Nc1ncc(-c2cnn(C3CCNCC3)c2)cc1-c1cc2cc(F)ccc2cn1 [Example 35, 3-(6-Fluoroisoquinolin-3-yl)-5-(1-piperidin-4-yl-1H-pyrazol-4-yl)-pyridin-2-ylamine] | 1000 to 20000 nM | 1000 to 20000 nM
10 | N#Cc1cccc2cc(-c3cc(-c4cnn(C5CCNCC5)c4)cnc3N)ncc12 [Example 36, 3-[2-Amino-5-(1-piperidin-4-yl-1H-pyrazol-4-yl)-pyridin-3-yl]-isoquinoline-8-carbonitrile trihydrochloride salt] | 100 to 1000 nM | 100 to 1000 nM
11 | N#Cc1ccc(F)c2cnc(-c3cc(-c4cnn(C5CCNCC5)c4)cnc3N)cc12 [Example 37, 3-[2-Amino-5-(1-piperidin-4-yl-1H-pyrazol-4-yl)-pyridin-3-yl]-8-fluoro-isoquinoline-5-carbonitrile trihydrochloride] | 100 to 1000 nM | 100 to 1000 nM
12 | Nc1ncc(-c2cnn(C3CCNCC3)c2)cc1-c1cc2ccc(F)c(Cl)c2cn1 [Example 38, 3-(8-Chloro-7-fluoroisoquinolin-3-yl)-5-(1-piperidin-4-yl-1H-pyrazol-4-yl)-pyridin-2-ylamine trihydrochloride salt] | ≤ 100 nM | 100 to 1000 nM
13 | Nc1ncc(-c2cnn(C3CCNCC3)c2)cc1-c1cc2cccc(F)c2cn1 [Example 39, 3-(8-Fluoroisoquinolin-3-yl)-5-(1-piperidin-4-yl-1H-pyrazol-4-yl)-pyridin-2-ylamine] | ≤ 100 nM | 100 to 1000 nM
14 | Nc1ncc(-c2cnn(C3CCNCC3)c2)cc1-c1cc2cc(Cl)ccc2cn1 [Example 40, 3-(6-Chloroisoquinolin-3-yl)-5-(1-piperidin-4-yl-1H-pyrazol-4-yl)-pyridin-2-ylamine trihydrochloride] | 100 to 1000 nM | 100 to 1000 nM
15 | Nc1ncc(-c2cnn(C3CCNCC3)c2)cc1-c1cc2ccc(Cl)cc2cn1 [Example 41, 3-(7-Chloroisoquinolin-3-yl)-5-(1-piperidin-4-yl-1H-pyrazol-4-yl)-pyridin-2-ylamine trihydrochloride] | 100 to 1000 nM | 1000 to 20000 nM
16 | Nc1ncc(-c2cnn(C3CCNCC3)c2)cc1-c1cc2c(Cl)cccc2cn1 [Example 42, 3-(5-Chloroisoquinolin-3-yl)-5-(1-piperidin-4-yl-1H-pyrazol-4-yl)-pyridin-2-ylamine trihydrochloride] | 100 to 1000 nM | 100 to 1000 nM
17 | Nc1ncc(-c2cnn(C3CCNCC3)c2)cc1-c1cc2cc(Cl)cc(Cl)c2cn1 [Example 43, 3-(6,8-Dichloroisoquinolin-3-yl)-5-(1-piperidin-4-yl-1H-pyrazol-4-yl)-pyridin-2-ylamine trihydrochloride] | 100 to 1000 nM | 100 to 1000 nM
18 | COc1ccc2cc(-c3cc(-c4cnn(C5CCNCC5)c4)cnc3N)ncc2c1 [Example 44, 3-(7-Methoxyisoquinolin-3-yl)-5-(1-piperidin-4-yl-1H-pyrazol-4-yl)-pyridin-2-ylamine trihydrochloride] | 1000 to 20000 nM | 1000 to 20000 nM
19 | COc1ccc2cnc(-c3cc(-c4cnn(C5CCNCC5)c4)cnc3N)cc2c1 [Example 45, 3-(6-Methoxyisoquinolin-3-yl)-5-(1-piperidin-4-yl-1H-pyrazol-4-yl)-pyridin-2-ylamine trihydrochloride] | 100 to 1000 nM | 1000 to 20000 nM
20 | Nc1ncc(-c2cnn(C3CCNCC3)c2)cc1-c1cc2cc(F)cc(F)c2cn1 [Example 46, 3-(6,8-Difluoroisoquinolin-3-yl)-5-(1-piperidin-4-yl-1H-pyrazol-4-yl)-pyridin-2-ylamine trihydrochloride salt] | 100 to 1000 nM | 1000 to 20000 nM
21 | Nc1ncc(-c2cnn(C3CCNCC3)c2)cc1-c1cc2cc(F)cc(Cl)c2cn1 [Example 47, 3-(8-Chloro-6-fluoroisoquinolin-3-yl)-5-(1-piperidin-4-yl-1H-pyrazol-4-yl)-pyridin-2-ylamine trihydrochloride salt] | 100 to 1000 nM | 100 to 1000 nM
22 | Nc1ncc(-c2cnn(C3CCNCC3)c2)cc1-c1cc2c(-c3ccco3)ccc(F)c2cn1 [Example 48, 3-(8-Fluoro-5-furan-2-ylisoquinolin-3-yl)-5-(1-piperidin-4-yl-1H-pyrazol-4-yl)-pyridin-2-ylamine] | 100 to 1000 nM | 100 to 1000 nM
23 | Nc1ncc(-c2cnn(C3CCNCC3)c2)cc1-c1cc2c(-c3ccoc3)ccc(F)c2cn1 [Example 49, 3-(8-Fluoro-5-furan-3-ylisoquinolin-3-yl)-5-(1-piperidin-4-yl-1H-pyrazol-4-yl)-pyridin-2-ylamine trihydrochloride] | ≤ 100 nM | 100 to 1000 nM
24 | Nc1ncc(-c2cnn(C3CCNCC3)c2)cc1-c1cc2c(-c3ccccc3)ccc(F)c2cn1 [Example 50, 3-(8-Fluoro-5-phenylisoquinolin-3-yl)-5-(1-piperidin-4-yl-1H-pyrazol-4-yl)-pyridin-2-ylamine] | 100 to 1000 nM | 100 to 1000 nM
25 | Nc1ncc(-c2cnn(C3CCNCC3)c2)cc1-c1cc2c(-c3cn[nH]c3)ccc(F)c2cn1 [Example 51, 3-[8-Fluoro-5-(1H-pyrazol-4-yl)-isoquinolin-3-yl]-5-(1-piperidin-4-yl-1H-pyrazol-4-yl)-pyridin-2-ylamine trihydrochloride] | ≤ 100 nM | ≤ 100 nM
26 | Cn1cc(-c2ccc(F)c3cnc(-c4cc(-c5cnn(C6CCNCC6)c5)cnc4N)cc23)cn1 [Example 52, 3-[8-Fluoro-5-(1-methyl-1H-pyrazol-4-yl)-isoquinolin-3-yl]-5-(1-piperidin-4-yl-1H-pyrazol-4-yl)-pyridin-2-ylamine trihydrochloride] | ≤ 100 nM | ≤ 100 nM
27 | Nc1ncc(-c2cnn(C3CCNCC3)c2)cc1-c1cc2c(-c3ccc[nH]3)ccc(F)c2cn1 [Example 53, 3-[8-Fluoro-5-(1H-pyrrol-2-yl)-isoquinolin-3-yl]-5-(1-piperidin-4-yl-1H-pyrazol-4-yl)-pyridin-2-ylamine] | 100 to 1000 nM | 100 to 1000 nM
